According to publication PMC6048956, “A Double-Blind, Placebo-Controlled Trial Demonstrating the Safety, Tolerability, and Pharmacokinetics of Single, Escalating Oral Doses of RTI-336” (Frontiers in Pharmacology, 2018):
“Also recorded” adds a separate entry of the source. Where two headings read alike, the source gives them in different places.

Columns and labels:
[1] = Plasma pharmacokinetics after single oral doses of RTI-336 in healthy males; format: in vivo, human; details: for half-life / AUC(0-inf) / Cmax / Tmax: male, human, plasma; for half-life: po
Method: (§1) RTI-336-001 was a single-center, double-blind, placebo-controlled, and randomized clinical trial to evaluate the safety, tolerability, and PK of single, escalating oral doses of RTI-336 (0.3, 1, 3, 6, 12, and 20 mg) in 2 cohorts (lowest 3 doses and highest 3 doses) of healthy male participants. RTI-336 and placebo capsules were identical in appearance, and participants, care providers, and those assessing outcomes were blinded to study drug assignment. Each cohort was to be enrolled in 2 groups of 5 participants (randomized 4:1 drug:placebo independently at each dose); the second group was dosed 24 h after the first group, following a safety review of the first group. Each participant would receive up to 3 single, escalating oral doses (in periods 1, 2, and 3) of study drug under fasting conditions, with a minimum of 10 days between doses, and could only participate in one cohort. The number of participants is typical for first-in-man safety and PK studies, and the trial ran to completion.
Blood samples were obtained at 0.25, 0.5, 1, 1.5, 2, 3, 4, 6, 8, 12, 16, 24, 30, 36, and 48 h post-dose. Cumulative urine specimens were collected over the intervals 0–6, 6–12, 12–24, 24–36, and 36–48 h post-dose.

dopamine reuptake = dopamine reuptake (Homo sapiens, UniProt Q01959); assay: Inhibition of dopamine reuptake; format: biochemical
Sequence of dopamine reuptake (Q01959 whole entry): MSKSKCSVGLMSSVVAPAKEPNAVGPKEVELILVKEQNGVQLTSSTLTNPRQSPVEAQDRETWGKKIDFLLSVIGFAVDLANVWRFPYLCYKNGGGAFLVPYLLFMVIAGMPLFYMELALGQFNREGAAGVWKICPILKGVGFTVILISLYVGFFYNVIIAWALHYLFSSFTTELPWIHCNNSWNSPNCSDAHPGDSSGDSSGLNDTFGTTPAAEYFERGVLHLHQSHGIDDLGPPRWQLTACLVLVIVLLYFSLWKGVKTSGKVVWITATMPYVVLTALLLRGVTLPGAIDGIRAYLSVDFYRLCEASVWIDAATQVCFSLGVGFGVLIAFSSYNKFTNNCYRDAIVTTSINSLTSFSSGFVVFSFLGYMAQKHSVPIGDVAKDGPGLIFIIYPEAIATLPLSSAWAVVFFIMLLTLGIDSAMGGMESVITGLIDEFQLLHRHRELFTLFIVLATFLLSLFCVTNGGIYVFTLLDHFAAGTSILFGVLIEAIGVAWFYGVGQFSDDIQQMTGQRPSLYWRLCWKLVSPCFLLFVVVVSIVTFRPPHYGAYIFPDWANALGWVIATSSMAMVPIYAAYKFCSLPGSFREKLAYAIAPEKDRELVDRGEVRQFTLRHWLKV

monkeys [2] = details: acute and reversible with reduced dosing, preclinical toxicology; cited from earlier work
dog = details: 3 mg/kg, 22 h after the dose, preclinical toxicology; cited from earlier work
rats [3] = details: acute and reversible with reduced dosing, preclinical toxicology; cited from earlier work
[4] = system: healthy male participants; assay: Safety and tolerability of single, escalating oral doses (trial RTI-336-001); format: in vivo, human; details: for serum total bilirubin elevation: day 3 post-dose
Method: as §1
Orthostatic vital signs (HR, systolic and diastolic blood pressure, and respiratory rate) were obtained pre-dose and at 1, 2, 4, 8, 12, 24, and 48 h post-dose. Body weight was measured at screening, on admissions to the clinic for dosing, and at 7 days following their final dose. Physical examinations of all major organ systems (including neurological examination) were performed at admission and at 48 h post-dose. Adverse events (AEs) were monitored from dosing until 8 days post-dose or resolution, whichever was longer.
Six-lead ECG telemetry was monitored from 15 min pre-dose until 8 h post-dose. Supine 12-lead ECGs were obtained pre-dose and at 1, 2, 4, 8, 12, 24, and 48 h post-dose.
Urine for urinalysis (bacteria, bilirubin, blood, glucose, ketones, leukocyte esterase, nitrite, pH, protein, red blood cells, specific gravity, urobilinogen, and WBC) was collected pre-dose and 48 h post-dose. Unfasted blood samples for chemistry (including troponin, albumin, alkaline phosphatase, ALT, AST, BUN, calcium, chloride, CK, creatinine, GGT, globulin, glucose, LDH, phosphorus, potassium, sodium, total bilirubin, total cholesterol, total protein, triglycerides, and uric acid) and hematology (basophils, eosinophils, Hct, Hgb, lymphocytes, RBC indices, monocytes, neutrophils, platelets, RBC, and WBC) were obtained on admission and fasted samples at 48 h post-dose.
The Mini Mental Status Examination (MMSE) ([Folstein et al., 1975]; [Malloy et al., 1997]) was performed on admission to the clinic and at 4 and 8 h post-dose.

[5] = co-administration with morphine; ref data on file, RTI; cited from earlier work
[6] = co-administration with ethanol, ref data on file, RTI, cited from earlier work
rats [7] = details: rats co-administered RTI-336 with cocaine, ref data on file; cited from earlier work
rhesus monkey = system: rhesus monkey; set-up: method as in Carroll et al., 2006a,b; Carroll, 2007; Howell et al., 2007; details: rhesus monkey model, ref Carroll et al., 2006a,b, 2007, Howell et al.; cited from earlier work
[8] = preclinical toxicology; cited from earlier work
monkeys [9] = details: 9 mg/kg/day, 14-day; cited from earlier work
mice [10] = details: up to 75 mg/kg, preclinical toxicology; cited from earlier work
mice [11] = assay: Preclinical toxicology, seizures in mice
rat = system: rat; set-up: method as in Carroll et al., 2006a,b; Carroll, 2007; Howell et al., 2007; details: rat model, ref Carroll et al., 2006a,b, 2007, Howell et al.; cited from earlier work
[12] = single oral dose 1 mg, fasted, healthy males
[13] = single oral dose 3 mg, fasted, healthy males
[14] = single oral dose 6 mg, fasted, healthy males
[15] = single oral dose 12 mg, fasted, healthy males
[16] = single oral dose 20 mg, fasted, healthy males
[17] = humans, single oral doses up to 20 mg

For `Cc1ccc(-c2cc([C@@H]3C4CCC(C[C@@H]3c3ccc(Cl)cc3)N4C)on2)cc1` (some centres unmarked) [RTI-336], the “dose proportionality of plasma drug exposure (AUC0-inf) and Cmax” value ([1]; 1-20 mg single oral dose range) was “increased in proportion to dose; also recorded: increased dose proportionally”, the “time of peak plasma RTI-336 concentration” value ([1]; across 1-20 mg single oral dose levels, fasted) was “around 4 h” and the half-life ([1]; 1 mg, single oral dose 1 mg, fasted, healthy males, read-out: t1/2 (converted)) was 5.44 h. It also gave a half-life ([1]; 3 mg, single oral dose 3 mg, fasted, healthy males, read-out: t1/2 (converted)) of 7.07 h, a half-life ([1]; 6 mg, single oral dose 6 mg, fasted, healthy males, read-out: t1/2 (converted)) of 17.9 h and a half-life ([1]; 12 mg, single oral dose 12 mg, fasted, healthy males, read-out: t1/2 (converted)) of 15.3 h. The half-life ([1]; 20 mg, across 6, 12 and 20 mg single oral doses, read-out: plasma half-life (converted)) was roughly 17 h, the half-life ([1]; 20 mg, single oral dose 20 mg, fasted, healthy males, read-out: t1/2 (converted)) was 18 h and the AUC(0-inf) [1, 12] was 3.8 ng·h/mL. The Cmax [1, 12] was 0.375 ng/mL, the Tmax [1, 12] was 4.5 h and the AUC(0-inf) [1, 13] was 12.3 ng·h/mL. For the same compound, the Cmax [1, 13] was 1.04 ng/mL, the Tmax [1, 13] was 3.71 h and the AUC(0-inf) [1, 14] was 40.4 ng·h/mL. It also gave a Cmax [1, 14] of 3.26 ng/mL, a Tmax [1, 14] of 4.38 h and an AUC(0-inf) [1, 15] of 63.1 ng·h/mL. The Cmax [1, 15] was 5.23 ng/mL, the Tmax [1, 15] was 3.67 h and the AUC(0-inf) [1, 16] was 115 ng·h/mL. For the same compound, the Cmax [1, 16] was 10.3 ng/mL, the Tmax [1, 16] was 3.43 h and the IC50 (dopamine reuptake) was 23 nM. For the same compound, the “central nervous system adverse effects” value (monkeys [2]) was “central nervous system stimulation with hyperactivity and stereotypic behavior”, the seizures (dog) was “observed only in one dog” and the “central nervous system adverse effects” value (rats [3]) was “central nervous system stimulation with hyperactivity and stereotypic behavior”. For the same compound, the “serum total bilirubin elevation” value ([4]; 2 participants, transient and mild, resolved by day 8) was less than 1.5 × ULN, the “effects on the MMSE” value ([4]; 4 and 8 h post-dose) was “No effects were observed” and the “participants with AEs” value ([4]; cumulative dose 6 mg or greater) was 4 of 11. The “participants with AEs” value ([4]; cumulative doses less than 6 mg) was 3 of 10, the ECG abnormalities [4, 17] was “no ECG abnormalities” and the “behavioral stimulation (hyperactivity, stereotypic behavior)” value [4, 17] was “no such behavioral stimulation”. For the same compound, the Adverse events ([4]; participant S031, cohort 1, period 2, 1 mg) was “Body temperature decreased”, the Adverse events ([4]; participant S031, cohort 1, period 3, 3 mg, cumulative 4 mg) was “Body temperature decreased, chalazion” and the Adverse events ([4]; participant S038, cohort 1, following 3 mg, cumulative 3.3 mg, possibly related to study drug) was “Somnolence^b”. For the same compound, the “serum total bilirubin elevation” value ([4]; participant S046, 1 mg) was 1.08 × ULN, the total bilirubin ([4]; participant S046, 1 mg, day 3 post-dose (ULN 20.5; 13.68 pre-dose, 8.55 day 8)) was 22.23 and the “serum total bilirubin elevation” value ([4]; participant S046, 3 mg) was 1.001 × ULN. The total bilirubin ([4]; participant S046, 3 mg, day 3 post-dose (6.84 pre-dose, 5.13 day 8)) was 20.52, the Adverse events ([4]; participant S059, cohort 2, 6 mg) was “Soft tissue inflammation” and the “serum total bilirubin elevation” value ([4]; participant S069, 6 mg) was 1.25 × ULN. The total bilirubin ([4]; participant S069, 6 mg, day 3 post-dose (10.26 pre-dose, 10.26 day 8)) was 25.65, the Adverse events ([4]; participant S069, cohort 2, 6 mg, related to their activities, not to study drug) was “Blood creatine phosphokinase increased” and the Adverse events ([4]; participant S078, cohort 2, 6, 12, 20 mg, cumulative 38 mg) was “Nasal congestion, pharyngolaryngeal pain”. For the same compound, the “effects on other chemistry or hematology, urinalysis, vital sign, or ECG results” value ([4]; single oral doses 0.3-20 mg) was “No systematic RTI-336 effects were observed”, the tolerability ([4]; single oral doses 0.3-20 mg, healthy males) was “well-tolerated up to the maximum evaluated dose of 20 mg; also recorded: well-tolerated at single doses of up to 20 mg; also recorded: free of significant side effects or toxicity” and the maximum tolerated dose ([4]; single oral doses up to 20 mg) was “not identified”. The “effect on morphine-related analgesia” value [5] was “did not affect morphine-related analgesia”, the “effect on weight loss” value [5] was “did increase weight loss” and the “effect on ethanol-related mortality” value [6] was “did not increase ethanol-related mortality”. The “effect on ethanol-induced incoordination” value ([6]; rota-rod performance) was “reduced ethanol-induced incoordination”, the “effect on acute toxicity of cocaine” value (rats [7]) was “no potentiation of the acute toxicity of cocaine” and the cocaine self-administration (rhesus monkey) was “suppresses cocaine self-administration”. For the same compound, the cardiovascular effects [8] was “low potential for prolonging QTc interval”, the hepatotoxicity (monkeys [9]) was “increased ALT activity and/or bilirubin and mild-to-moderate diffuse or centrilobular vacuolar degeneration in hepatocytes” and the seizures (mice [10]) was “did not occur”. For the same compound, the “highest seizure-free dose (75 mg/kg) relative to oral ED50 for spontaneous locomotor activity” value (mice [11]) was 7.5 fold and the cocaine self-administration (rat) was “suppresses cocaine self-administration”.
